# Residues, ends and D or L forms follow the SMILES beside them. *: point of attachment. Cbz = O=C(OCc1ccccc1)*; CH2F = FC*
# What was measured:
# PANC-1 and KP4 cells = experiment: Cell death manner assay (co-treatment with death pathway inhibitors, CCK-8); assay type: cell-based; conditions: 10 µM Z-VAD-FMK, 5 mM 3-MA, 10 µM Nec-1, 10 µM Fer-1 with ZQJ29, 24 h
# Protocol: To investigate the mechanism of ZQJ29 in pancreatic cancer proliferation inhibition, the manners of cell death were analyzed. The cell apoptosis inhibitor Z‐VAD‐FMK, cell autophagy inhibitor 3‐methyladenine, cell necrosis inhibitor necrostatin‐1, cell ferroptosis inhibitor Ferrostatin‐1, and cell ferroptosis agonist Erastin were purchased […] (MCE, USA) and stored at −20 °C. PANC‐1 and KP4 cells were seeded with a density of 2000 cells/100 µL well^−1 into 96 well plates. After 24 h, 10 µM Z‐VAD‐FMK, 5 mM 3‐methyladenine, 10 µM necrostatin‐1, 10 µM Ferrostatin‐1, and 10 µM Erastin were added and co‐incubated with ZQJ29 (1 µM), respectively, for 24 h. Then, 10 µL CCK‐8 was added and incubated at 37 °C for an additional 1 h, the absorbance was measured at 450 nm. The percentage of viability was calculated.
# PANC-1 tumors = experiment: PANC-1 subcutaneous xenograft antitumor activity; assay type: in vivo, BALB/c nude mice; conditions: vs control
# Protocol: (§1) Five‐week‐old male BALB/c nude mice were purchased from Shanghai Jihui Laboratory Animal Breeding Co., Ltd. (Shanghai, China). After a one‐week acclimatization period, PANC‐1 cells were subcutaneously injected at a dose of 5 × 10^6 cells per mouse. Four weeks post‐injection, once tumor volumes reached 50–100 mm^3, the tumor‐bearing animals were randomly divided into four groups, each consisting of six animals. ZQJ29 was prepared in a 0.5% CMC‐Na solution, while OXA was dissolved in saline. The control group was treated with oral gavage of 0.5% CMC‐Na, while the positive control group was administered intraperitoneal injections of OXA at a dosage of 3 mg kg^−1 every three days. The test groups were treated with oral gavage of ZQJ29 at dosages of 25 and 50 mg kg day^−1. Mouse weights were monitored every other day. Tumor measurements were taken every other day using calipers, and the tumor volume was calculated using the following formula: ½ × length × width^2. Drug administered continued for three weeks. After blood collection at the end of the administration, the mice were humanely euthanized, and their vital organs were promptly harvested, preserved, and embedded in paraffin for H&E staining.
# PANC-1 = experiment: CCK-8 cytotoxicity assay, PANC-1; assay type: cell-based; conditions: PANC-1, 72 h, average of 3 parallel tests
# Protocol: (§2) Cell viability was evaluated using the Cell Counting Kit‐8 (Beyotime, Shanghai, China) assay. Cells were seeded in 96‐well plates at a density of 2×10^3 cells to allow for attachment. After treatment with ZQJ29 (0.001, 0.01, 0.1, 10, and 25 µM) for 24, 48, and 72 h, 10 µL of CCK‐8 solution was added to each well and incubated for 1 h. The optical density values were then measured at 450 nm using a multifunctional enzyme‐linked immunosorbent assay reader (Tecan, Spark, Switzerland).
# KP4 = experiment: CCK-8 cytotoxicity assay, KP4; assay type: cell-based; conditions: KP4, 72 h, average of 3 parallel tests
# Protocol: as §2
# HPDE6-C7 = experiment: CCK-8 cytotoxicity assay, HPDE6-C7 (normal cell line); assay type: cell-based
# Protocol: as §2
# JHH7 = experiment: CCK-8 cytotoxicity assay, JHH7; assay type: cell-based; conditions: JHH7, 72 h
# Protocol: as §2
# [1] = Toxicity in tumor-bearing mice (body weight, ALT/AST, H&E); assay type: in vivo, BALB/c nude mice
# Protocol: as §1
# Following the experiments, organs from mice, including hearts, livers, spleens, lungs, and kidneys were swiftly collected and fixed in 4% paraformaldehyde overnight. The tissues were then embedded in paraffin. Afterward, 4‐µm‐thick sections were produced and stained using H&E. Images of these sections were captured with a Leica DM4000b microscope (Germany).
# Blood samples were collected and placed in a biochemical incubator for 30 min, followed by centrifugation at 6000 rpm for 10 min. The supernatant was used to measure the following indicators: ALT and AST (both from Jiancheng, Nanjing, China).
# MCF = experiment: CCK-8 cytotoxicity assay, MCF; assay type: cell-based; conditions: 72 h
# Protocol: as §2
# HCT116 = experiment: CCK-8 cytotoxicity assay, HCT116; assay type: cell-based; conditions: HCT116, 72 h
# Protocol: as §2
# LX2 = experiment: CCK-8 cytotoxicity assay, LX2 (normal cell line); assay type: cell-based
# Protocol: as §2
# HEK-293T = experiment: CCK-8 cytotoxicity assay, HEK-293T (normal cell line); assay type: cell-based; conditions: 72 h
# Protocol: as §2
# H1975 = experiment: CCK-8 cytotoxicity assay, H1975; assay type: cell-based
# Protocol: as §2
# HeLa = experiment: CCK-8 cytotoxicity assay, HeLa; assay type: cell-based; conditions: 72 h
# Protocol: as §2
# A549 = experiment: CCK-8 cytotoxicity assay, A549; assay type: cell-based; conditions: A549, 72 h
# Protocol: as §2
# THLE-2 = experiment: CCK-8 cytotoxicity assay, THLE-2 (normal cell line); assay type: cell-based; conditions: 72 h
# Protocol: as §2
# [2] = parameters: method as in PMID 38859952; conditions: DHA; cited from earlier work
structure (smiles),measurement,setting,value
"Cn1cnc(N)c2ncnc1-2 [3‐MA, 3‐methyladenine]",reversal of ZQJ29-induced cell death by co-treatment,PANC-1 and KP4 cells,did not reverse
"CN1C(=O)C(Cc2c[nH]c3ccccc23)NC1=S (stereo not drawn) [Nec‐1, necrostatin‐1]",reversal of ZQJ29-induced cell death by co-treatment,PANC-1 and KP4 cells,did not reverse
"O=C1[O][Pt]2([NH][C@@H]3CCCC[C@H]3[NH]2)[O]C1=O [OXA, oxaliplatin]",tumor growth,"PANC-1 tumors; ZQJ29 25 and 50 mg/kg/day oral gavage, OXA 3 mg/kg i.p. every three days, three weeks",effectively inhibited
same,expression of Ki67 and PCNA in tumor tissue (IHC),PANC-1 tumors; after treatment,significantly reduced
same,IC50,PANC-1,> 10 µM
same,IC50,KP4,> 10 µM
same,IC50,HPDE6-C7; 72 h,2.7 ± 0.567 µM
same,IC50,JHH7,7.15 ± 2.6 µM
same,post-experiment levels of ALT and AST,"[1]; ZQJ29 50 mg/kg, OXA 3 mg/kg i.p.",significantly elevated
same,body weight during the whole treatment period,"[1]; tumor-bearing nude mice, three weeks",decreased significantly
same,IC50,MCF,0.196 ± 0.087 µM
same,IC50,HCT116,0.103 ± 0.026 µM
same,IC50,LX2; 72 h,2.46 ± 0.56 µM
same,IC50,HEK-293T,> 10 µM
same,IC50,"H1975; H1975, 72 h",3.49 ± 0.552 µM
same,IC50,HeLa,0.51 ± 0.121 µM
same,IC50,A549,2.47 ± 0.41 µM
same,IC50,THLE-2,0.777 ± 0.188 µM
"C[C@H]1[C@@H](O)O[C@@H]2O[C@@]3(C)CC[C@H]4[C@H](C)CC[C@@H]1[C@@]24OO3 [DHA, dihydroartemisinin]",IC50,PANC-1; Homo sapiens,> 10 µM
same,IC50,"KP4; Homo sapiens, KP-4",> 10 µM
same,IC50,"HPDE6-C7; HPDE6c7, 72 h",> 10 µM
same,IC50,JHH7,> 10 µM
same,IC50,MCF,> 10 µM
same,t1/2,[2],30 min
same,IC50,"HCT116; Homo sapiens, HCT-116",> 10 µM
same,IC50,"LX2; Homo sapiens, LX-2, 72 h",> 10 µM
same,IC50,HEK-293T; Homo sapiens,> 10 µM
same,IC50,"H1975; Homo sapiens, NCI-H1975, 72 h",> 10 µM
same,IC50,HeLa; Homo sapiens,> 10 µM
same,IC50,A549; Homo sapiens,> 10 µM
same,IC50,THLE-2; Homo sapiens,8.66 ± 0.714 µM
CC1CCC2C(C)C(OCCNCCOC3OC4OC5(C)CCC6C(C)CCC(C3C)C46OO5)OC3OC4(C)CCC1C32OO4 (stereo not drawn) [SM1044],IC50,PANC-1; Homo sapiens,5.95 ± 0.501 µM
same,IC50,"KP4; Homo sapiens, KP-4",3 ± 0.799 µM
same,IC50,"HPDE6-C7; HPDE6c7, 72 h",> 10 µM
same,IC50,JHH7,2.13 ± 0.573 µM
same,IC50,MCF,1.33 ± 0.303 µM
same,IC50,"HCT116; Homo sapiens, HCT-116",4.98 ± 2.36 µM
same,IC50,"LX2; Homo sapiens, LX-2, 72 h",> 10 µM
same,IC50,HEK-293T; Homo sapiens,> 10 µM
same,IC50,"H1975; Homo sapiens, NCI-H1975, 72 h",6.88 ± 0.014 µM
same,IC50,HeLa; Homo sapiens,2.29 ± 0.429 µM
same,IC50,A549; Homo sapiens,3.45 ± 1.76 µM
same,IC50,THLE-2; Homo sapiens,> 10 µM
COC(=O)C[C@H](NC(=O)[C@H](C)NC(=O)[C@@H](NC(=O)OCc1ccccc1)C(C)C)C(=O)CF [Z‐VAD‐FMK] (Cbz-Val-Ala-Asp(OMe)-CH2F),reversal of ZQJ29-induced cell death by co-treatment,PANC-1 and KP4 cells,did not reverse
"CCOC(=O)c1ccc(NC2CCCCC2)c(N)c1 [Fer‐1, Ferrostatin‐1]",reversal of ZQJ29-induced cell death by co-treatment,PANC-1 and KP4 cells,reversed
N.N.[Cl][Pt][Cl] [DDP],IC50,PANC-1,> 10 µM
same,IC50,KP4,> 10 µM
same,IC50,HPDE6-C7; 72 h,> 10 µM
same,IC50,JHH7,> 10 µM
same,IC50,MCF,0.036 ± 0.028 µM
same,IC50,HCT116,0.071 ± 0.042 µM
same,IC50,LX2; 72 h,> 10 µM
same,IC50,HEK-293T,> 10 µM
same,IC50,"H1975; H1975, 72 h",> 10 µM
same,IC50,HeLa,0.282 ± 0.11 µM
same,IC50,A549,> 10 µM
same,IC50,THLE-2,1.46 ± 0.984 µM
